Target: T1, human PAH with the R408W mutation (A375 R408W cells) (Homo sapiens, UniProt P00439, R408W)
T1 construct: expressed in transfected cells
T1 sequence (P00439 1-452 R408W): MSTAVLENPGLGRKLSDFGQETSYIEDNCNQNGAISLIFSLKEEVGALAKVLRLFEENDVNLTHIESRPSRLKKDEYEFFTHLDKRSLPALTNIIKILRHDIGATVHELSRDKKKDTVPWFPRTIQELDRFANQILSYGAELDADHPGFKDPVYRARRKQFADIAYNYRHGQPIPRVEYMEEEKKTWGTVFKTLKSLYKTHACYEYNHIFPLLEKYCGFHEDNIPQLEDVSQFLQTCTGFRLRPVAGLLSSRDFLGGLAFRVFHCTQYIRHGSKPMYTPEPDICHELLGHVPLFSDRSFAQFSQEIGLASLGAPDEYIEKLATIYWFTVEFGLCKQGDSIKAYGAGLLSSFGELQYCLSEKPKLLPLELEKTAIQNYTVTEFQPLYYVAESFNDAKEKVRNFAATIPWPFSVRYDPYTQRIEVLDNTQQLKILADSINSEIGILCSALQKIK
Assay: Cell Based Phenylalanine Flux Assay
Conditions: A375 R408W cells; 24 hrs with compound, then 20 μM sepiapterin and 800 μM 13C9,15N-Phenylalanine for 4 hours; 13C-Tyrosine by LC-MS; average where tested multiple times
Procedure, shortened: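 LC-MS quantitation of 13C-tyrosine in media gave AC50 values. Stable A375 R408W PAH cells were preincubated 24 h with compound, then fed 800 μM labelled Phe plus 20 μM sepiapterin for 4 h. Dose curves were 10-point, tested in duplicate, averaged over repeat runs.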

First: O=C(CCc1ncco1)N1CCc2[nH]cnc2[C@H]1c1nc2c(F)cccc2o1 [Example 887, (S)-1-(4-(4-fluorobenzo[d]oxazol-2-yl)-6,7-dihydro-1H-imidazo[4,5-c]pyridin-5(4H)-yl)-3-(oxazol-2-yl)propan-1-one]
Second: Cc1nc(C(C)(C)O)oc1C(=O)N1CCc2[nH]cnc2[C@@H]1c1nc2c(F)cccc2o1 [Example 260, (R)-(4-(4-fluorobenzo[d]oxazol-2-yl)-6,7-dihydro-1H-imidazo[4,5-c]pyridin-5(4H)-yl)(2-(2-hydroxypropan-2-yl)-4-methyloxazol-5-yl)methanone]
The AC50 of the first is lower: 0.5 to 1 µM for the first, ≥ 5 µM for the second.

`CC1CN(C(=O)c2ocnc2C(F)F)[C@H](c2nc3cccc(F)c3o2)c2nc[nH]c21` (single isomer, unassigned) [Example 803] and `Cc1ccc2nc([C@H]3c4nc[nH]c4CCN3C(=O)c3ocnc3C(F)(F)F)oc2c1` [Example 58, (R)-(4-(6-methylbenzo[d]oxazol-2-yl)-6,7-dihydro-1H-imidazo[4,5-c]pyridin-5(4H)-yl)(4-(trifluoromethyl)oxazol-5-yl)methanone] cannot be ordered by AC50: ≤ 0.5 µM for the first, ≤ 0.5 µM for the second.

`Cc1ccc2nc([C@@H]3c4nc[nH]c4CCN3C(=O)c3nnc(-c4ccn(C(F)F)n4)o3)oc2c1` [Example 703, (S)-(5-(1-(difluoromethyl)-1H-pyrazol-3-yl)-1,3,4-oxadiazol-2-yl)(4-(6-methylbenzo[d]oxazol-2-yl)-6,7-dihydro-1H-imidazo[4,5-c]pyridin-5(4H)-yl)methanone] and `Cc1ccc2nc([C@@H]3c4nc[nH]c4CCN3C(=O)c3nnc(-c4ccn(C)n4)o3)oc2c1` [Example 357, (S)-(5-(1-methyl-1H-pyrazol-3-yl)-1,3,4-oxadiazol-2-yl)(4-(6-methylbenzo[d]oxazol-2-yl)-6,7-dihydro-1H-imidazo[4,5-c]pyridin-5(4H)-yl)methanone] fall in the same range of AC50: 0.5 to 1 µM for the first, 0.5 to 1 µM for the second.

`Cc1c(F)ccc2oc([C@@H]3c4nc[nH]c4CCN3C(=O)c3oc(C(C)(C)O)nc3C(F)F)nc12` [Example 719, (S)-(4-(difluoromethyl)-2-(2-hydroxypropan-2-yl)oxazol-5-yl)(4-(5-fluoro-4-methylbenzo[d]oxazol-2-yl)-6,7-dihydro-1H-imidazo[4,5-c]pyridin-5(4H)-yl)methanone] and `CC(C)(O)c1nc(C(F)F)c(C(=O)N2CCc3[nH]cnc3[C@H]2c2nc3cccc(OC(F)(F)F)c3o2)o1` [Example 529, (S)-(4-(difluoromethyl)-2-(2-hydroxypropan-2-yl)oxazol-5-yl)(4-(7-(trifluoromethoxy)benzo[d]oxazol-2-yl)-6,7-dihydro-1H-imidazo[4,5-c]pyridin-5(4H)-yl)methanone] cannot be ordered by AC50: ≤ 0.5 µM for the first, ≤ 0.5 µM for the second.

First: O=C(CC1CC1)N1CCc2[nH]cnc2[C@@H]1c1nc2cc(F)ccc2o1 [Example 38, (R)-2-cyclopropyl-1-(4-(5-fluorobenzo[d]oxazol-2-yl)-6,7-dihydro-1H-imidazo[4,5-c]pyridin-5(4H)-yl)ethanone]
Second: O=C(c1oc(C2CC2)nc1C(F)F)N1CCc2[nH]cnc2[C@@H]1c1nc2cc(F)ccc2o1 [Example 54, (R)-(2-cyclopropyl-4-(difluoromethyl)oxazol-5-yl)(4-(5-fluorobenzo[d]oxazol-2-yl)-6,7-dihydro-1H-imidazo[4,5-c]pyridin-5(4H)-yl)methanone]
The AC50 of the first is higher: 1 to 5 µM for the first, 0.5 to 1 µM for the second.

`Cn1ccc(-c2nnc(C(=O)N3CCc4[nH]cnc4[C@H]3c3nc4ccc(F)cc4o3)o2)n1` [Example 321, (S)-(4-(6-fluorobenzo[d]oxazol-2-yl)-6,7-dihydro-1H-imidazo[4,5-c]pyridin-5(4H)-yl)(5-(1-methyl-1H-pyrazol-3-yl)-1,3,4-oxadiazol-2-yl)methanone] and `Cn1cc(-c2nnc(C(=O)N3CCc4[nH]cnc4[C@H]3c3nc4c(F)cccc4o3)o2)cn1` [Example 197, (S)-(4-(4-fluorobenzo[d]oxazol-2-yl)-6,7-dihydro-1H-imidazo[4,5-c]pyridin-5(4H)-yl)(5-(1-methyl-1H-pyrazol-4-yl)-1,3,4-oxadiazol-2-yl)methanone] fall in the same range of AC50: 0.5 to 1 µM for the first, 0.5 to 1 µM for the second.

`COc1cccc2nc([C@H]3c4nc[nH]c4CCN3C(=O)c3cc(C(F)F)nn3C)oc12` [Example 778, (R)-(3-(difluoromethyl)-1-methyl-1H-pyrazol-5-yl)(4-(7-methoxybenzo[d]oxazol-2-yl)-6,7-dihydro-1H-imidazo[4,5-c]pyridin-5(4H)-yl)methanone] and `Cn1nc(C(F)(F)F)nc1C(=O)N1CCc2[nH]cnc2[C@H]1c1nc2cccc(F)c2o1` [Example 279, (S)-(4-(7-fluorobenzo[d]oxazol-2-yl)-6,7-dihydro-1H-imidazo[4,5-c]pyridin-5(4H)-yl)(1-methyl-3-(trifluoromethyl)-1H-1,2,4-triazol-5-yl)methanone] fall in the same range of AC50: 0.5 to 1 µM for the first, 0.5 to 1 µM for the second.

Compared with `CC(C)n1nccc1C(=O)N1CCc2[nH]cnc2[C@H]1c1nc2ccccc2o1` [Example 752, (S)-(4-(benzo[d]oxazol-2-yl)-6,7-dihydro-1H-imidazo[4,5-c]pyridin-5(4H)-yl)(1-isopropyl-1H-pyrazol-5-yl)methanone], `CC(C)n1nccc1C(=O)N1CCc2[nH]cnc2[C@@H]1c1nc2ccccc2o1` [Example 751, (R)-(4-(benzo[d]oxazol-2-yl)-6,7-dihydro-1H-imidazo[4,5-c]pyridin-5(4H)-yl)(1-isopropyl-1H-pyrazol-5-yl)methanone] is higher in AC50: ≤ 0.5 µM for the first, 1 to 5 µM for the second.

First: O=C(c1oc(-c2cccnc2)nc1C(F)F)N1CCc2[nH]cnc2[C@H]1c1nc2cc(F)ccc2o1 [Example 420, (S)-(4-(difluoromethyl)-2-(pyridin-3-yl)oxazol-5-yl)(4-(5-fluorobenzo[d]oxazol-2-yl)-6,7-dihydro-1H-imidazo[4,5-c]pyridin-5(4H)-yl)methanone]
Second: CCn1cnnc1C(=O)N1CCc2[nH]cnc2[C@H]1c1nc2cc(F)ccc2o1 [Example 885, (S)-(4-ethyl-4H-1,2,4-triazol-3-yl)(4-(5-fluorobenzo[d]oxazol-2-yl)-6,7-dihydro-1H-imidazo[4,5-c]pyridin-5(4H)-yl)methanone]
The AC50 of the first is lower: ≤ 0.5 µM for the first, 1 to 5 µM for the second.

`COCc1ccc2c(C(=O)N3CCc4[nH]cnc4[C@H]3c3nc4cc(F)ccc4o3)cnn2c1` [Example 29, (S)-(4-(5-fluorobenzo[d]oxazol-2-yl)-6,7-dihydro-1H-imidazo[4,5-c]pyridin-5(4H)-yl)(6-(methoxymethyl)pyrazolo[1,5-a]pyridin-3-yl)methanone] showed an AC50 of 1 to 5 µM.

Same assay, conditions: A375 cells expressing R408W PAH; 24 hrs with compound, then 20 μM sepiapterin and 800 μM 13C9,15N-Phenylalanine for 4 hours; 13C-Tyrosine by LC-MS; average where tested multiple times

`Cc1ccc2oc(C3c4nc[nH]c4CCN3C(=O)c3nc(C)nn3C)nc2c1` (centres unmarked) and `Cc1nc(C(C)(C)O)oc1C(=O)N1CCc2[nH]cnc2C1c1nc2cc(F)ccc2o1` (centres unmarked) cannot be ordered by AC50: ≥ 5 µM for the first, ≥ 5 µM for the second.

`Cn1ncc(C(=O)N2CCc3[nH]cnc3C2c2nc3cc(F)ccc3o2)c1C(F)F` (centres unmarked) and `O=C(c1cnn2cc(F)ccc12)N1CCc2[nH]cnc2C1c1nc2cc(F)ccc2o1` (centres unmarked) cannot be ordered by AC50: 1 to 5 µM for the first, ≥ 5 µM for the second.

`Cc1cccc2nc(C3c4nc[nH]c4CCN3C(=O)c3ccn(-c4ccccn4)n3)oc12` (centres unmarked) and `O=C(c1ccn(CC(F)F)n1)N1CCc2[nH]cnc2C1c1nc2c(F)cccc2o1` (centres unmarked) fall in the same range of AC50: 1 to 5 µM for the first, 1 to 5 µM for the second.

`O=C(c1cnn2cc(CN3CCC(F)(F)C3)ccc12)N1CCc2[nH]cnc2C1c1nc2cc(F)ccc2o1` (centres unmarked) and `Cc1ccc2oc(C3c4nc[nH]c4CCN3C(=O)c3cnn4cc(CCN(C)C)ccc34)nc2c1` (centres unmarked) cannot be ordered by AC50: ≥ 5 µM for the first, ≥ 5 µM for the second.

`COc1ccc2oc(C3c4nc[nH]c4CCN3C(=O)c3cnc(C(C)(C)O)o3)nc2c1` (centres unmarked) and `CC(C)(O)c1ncc(C(=O)N2CCc3[nH]cnc3C2c2nc3ccc(F)cc3o2)o1` (centres unmarked) fall in the same range of AC50: 1 to 5 µM for the first, 1 to 5 µM for the second.
